Source: PubChem BioAssay AID1259407 (Chemical Carcinogenesis Research Information System (CCRIS), 2018)
Activity calls are given as the source filed them. No rule for the calls is given here.

Tested on: CCRIS mutagenicity, Ames/micronucleus/aberration tests
Experiment: CCRIS mutagenicity studies
[1] = Test System: AMES SALMONELLA TYPHIMURIUM, Strain/Indicator: TA97, Metabolic Activation: HAMSTER, LIVER, S-9, AROCLOR 1254 (10%), Method: PREINCUBATION
[2] = Test System: AMES SALMONELLA TYPHIMURIUM, Strain/Indicator: TA97, Metabolic Activation: NONE, Method: PREINCUBATION
[3] = Test System: AMES SALMONELLA TYPHIMURIUM, Strain/Indicator: TA97, Metabolic Activation: RAT, LIVER, S-9, AROCLOR 1254 (10%), Method: PREINCUBATION
[4] = Test System: AMES SALMONELLA TYPHIMURIUM, Strain/Indicator: TA98, Metabolic Activation: HAMSTER, LIVER, S-9, AROCLOR 1254 (10%), Method: PREINCUBATION
[5] = Test System: AMES SALMONELLA TYPHIMURIUM, Strain/Indicator: TA98, Metabolic Activation: NONE, Method: PREINCUBATION
[6] = Test System: AMES SALMONELLA TYPHIMURIUM, Strain/Indicator: TA98, Metabolic Activation: RAT, LIVER, S-9, AROCLOR 1254 (10%), Method: PREINCUBATION
[7] = Test System: AMES SALMONELLA TYPHIMURIUM, Strain/Indicator: TA100, Metabolic Activation: HAMSTER, LIVER, S-9, AROCLOR 1254 (10%), Method: PREINCUBATION
[8] = Test System: AMES SALMONELLA TYPHIMURIUM, Strain/Indicator: TA100, Metabolic Activation: NONE, Method: PREINCUBATION
[9] = Test System: AMES SALMONELLA TYPHIMURIUM, Strain/Indicator: TA100, Metabolic Activation: RAT, LIVER, S-9, AROCLOR 1254 (10%), Method: PREINCUBATION
[10] = Test System: AMES SALMONELLA TYPHIMURIUM, Strain/Indicator: TA1535, Metabolic Activation: HAMSTER, LIVER, S-9, AROCLOR 1254 (10%), Method: PREINCUBATION
[11] = Test System: AMES SALMONELLA TYPHIMURIUM, Strain/Indicator: TA1535, Metabolic Activation: NONE, Method: PREINCUBATION
[12] = Test System: AMES SALMONELLA TYPHIMURIUM, Strain/Indicator: TA1535, Metabolic Activation: RAT, LIVER, S-9, AROCLOR 1254 (10%), Method: PREINCUBATION
[13] = Test System: AMES SALMONELLA TYPHIMURIUM, Strain/Indicator: TA98, Metabolic Activation: NONE, Method: STANDARD PLATE
[14] = Test System: AMES SALMONELLA TYPHIMURIUM, Strain/Indicator: TA100, Metabolic Activation: NONE, Method: STANDARD PLATE

CC(Cl)Cl
mutagenic call (End Point: IN VIVO CHROMOSOMAL ABERRATIONS, Test System: BONE MARROW, Species: MOUSE, Strain/Sex: SWISS-WEBSTER/MALE, Route: INTRAPERITONEAL): active; positive (structural changes)
mutagenic call (End Point: IN VIVO MICRONUCLEUS, Test System: BONE MARROW, Species: MOUSE, Strain/Sex: SWISS-WEBSTER/MALE, Route: INTRAPERITONEAL): active; positive (dose-dependent)
mutagenic call [1]: inactive; negative
mutagenic call (Test System: AMES SALMONELLA TYPHIMURIUM, Strain/Indicator: TA97, Metabolic Activation: HAMSTER, LIVER, S-9, AROCLOR 1254 (30%), Method: PREINCUBATION): inactive; negative
mutagenic call [2]: inactive; negative
mutagenic call [3]: inactive; negative
mutagenic call (Test System: AMES SALMONELLA TYPHIMURIUM, Strain/Indicator: TA97, Metabolic Activation: RAT, LIVER, S-9, AROCLOR 1254 (30%), Method: PREINCUBATION): inactive; negative
mutagenic call [4]: inactive; negative
mutagenic call (Test System: AMES SALMONELLA TYPHIMURIUM, Strain/Indicator: TA98, Metabolic Activation: HAMSTER, LIVER, S-9, AROCLOR 1254 (30%), Method: PREINCUBATION): inactive; negative
mutagenic call [5]: inactive; negative
mutagenic call [6]: inactive; negative
mutagenic call (Test System: AMES SALMONELLA TYPHIMURIUM, Strain/Indicator: TA98, Metabolic Activation: RAT, LIVER, S-9, AROCLOR 1254 (30%), Method: PREINCUBATION): inactive; negative
mutagenic call [7]: inactive; negative
mutagenic call (Test System: AMES SALMONELLA TYPHIMURIUM, Strain/Indicator: TA100, Metabolic Activation: HAMSTER, LIVER, S-9, AROCLOR 1254 (30%), Method: PREINCUBATION): inactive; negative
mutagenic call [8]: inactive; negative
mutagenic call [9]: inactive; negative
mutagenic call (Test System: AMES SALMONELLA TYPHIMURIUM, Strain/Indicator: TA100, Metabolic Activation: RAT, LIVER, S-9, AROCLOR 1254 (30%), Method: PREINCUBATION): inactive; negative
mutagenic call [10]: inactive; negative
mutagenic call (Test System: AMES SALMONELLA TYPHIMURIUM, Strain/Indicator: TA1535, Metabolic Activation: HAMSTER, LIVER, S-9, AROCLOR 1254 (30%), Method: PREINCUBATION): inactive; negative
mutagenic call [11]: inactive; negative
mutagenic call [12]: inactive; negative
mutagenic call (Test System: AMES SALMONELLA TYPHIMURIUM, Strain/Indicator: TA1535, Metabolic Activation: RAT, LIVER, S-9, AROCLOR 1254 (30%), Method: PREINCUBATION): inactive; negative
mutagenic call (Test System: AMES SALMONELLA TYPHIMURIUM, Strain/Indicator: TA1537, Metabolic Activation: HAMSTER, LIVER, S-9, AROCLOR 1254 (30%), Method: PREINCUBATION): inactive; negative
mutagenic call (Test System: AMES SALMONELLA TYPHIMURIUM, Strain/Indicator: TA1537, Metabolic Activation: NONE, Method: PREINCUBATION): inactive; negative
mutagenic call (Test System: AMES SALMONELLA TYPHIMURIUM, Strain/Indicator: TA1537, Metabolic Activation: RAT, LIVER, S-9, AROCLOR 1254 (30%), Method: PREINCUBATION): inactive; negative

CO[C@@H]1[C@H](C)O[C@@H](O[C@@H]2C[C@H](Oc3cc(O)c4c(O)c5c(cc4c3)C[C@@H]([C@H](OC)C(=O)[C@@H](O)[C@@H](C)O)[C@H](O[C@@H]3C[C@H](OC4C[C@H](O)[C@@H](O)[C@H](C)O4)[C@@H](O)[C@H](C)O3)C5=O)O[C@H](C)[C@@H]2O)C[C@@H]1O (some centres undefined)
mutagenic call (Test System: CHINESE HAMSTER OVARY, Strain/Indicator: CHO (HGPRT)/6-THIOGUANINE, Metabolic Activation: NONE, Method: PREINCUBATION): active; positive

ClCc1ccccc1CCl
mutagenic call [13]: inactive; negative

CC(=O)Nc1ccccc1N
mutagenic call [1]: active; positive
mutagenic call [2]: active; positive
mutagenic call [3]: active; positive
mutagenic call [4]: active; positive
mutagenic call [5]: inactive; negative
mutagenic call [6]: active; positive
mutagenic call [7]: active; positive
mutagenic call [8]: inactive; negative
mutagenic call [9]: active; positive
mutagenic call [10]: active; positive
mutagenic call [11]: inactive; negative
mutagenic call [12]: active; positive

CCn1c2ccccc2c2cc(C=O)ccc21
mutagenic call (End Point: IN VITRO CHROMOSOMAL ABERRATIONS, Test System: CHL CELLS, Metabolic Activation: RAT, LIVER, S-9, SODIUM PHENOBARBITAL AND 5,6-BENZOFLAVONE): active; positive (structural changes)

Cc1c(-c2ccccc2)oc2c(C(=O)OCCN3CCCCC3)cccc2c1=O
mutagenic call [13]: inactive; negative
mutagenic call (Test System: AMES SALMONELLA TYPHIMURIUM, Strain/Indicator: TA98, Metabolic Activation: S-9, Method: STANDARD PLATE): inactive; negative
mutagenic call [14]: inactive; negative
mutagenic call (Test System: AMES SALMONELLA TYPHIMURIUM, Strain/Indicator: TA100, Metabolic Activation: S-9, Method: STANDARD PLATE): inactive; negative
mutagenic call (Test System: AMES SALMONELLA TYPHIMURIUM, Strain/Indicator: TA1535, Metabolic Activation: NONE, Method: STANDARD PLATE): inactive; negative
mutagenic call (Test System: AMES SALMONELLA TYPHIMURIUM, Strain/Indicator: TA1535, Metabolic Activation: S-9, Method: STANDARD PLATE): inactive; negative
mutagenic call (Test System: AMES SALMONELLA TYPHIMURIUM, Strain/Indicator: TA1537, Metabolic Activation: NONE, Method: STANDARD PLATE): inactive; negative
mutagenic call (Test System: AMES SALMONELLA TYPHIMURIUM, Strain/Indicator: TA1537, Metabolic Activation: S-9, Method: STANDARD PLATE): inactive; negative
mutagenic call (Test System: AMES SALMONELLA TYPHIMURIUM, Strain/Indicator: TA1538, Metabolic Activation: NONE, Method: STANDARD PLATE): inactive; negative
mutagenic call (Test System: AMES SALMONELLA TYPHIMURIUM, Strain/Indicator: TA1538, Metabolic Activation: S-9, Method: STANDARD PLATE): inactive; negative

COCCc1ccc(OCC(O)CN(N=O)C(C)C)cc1 (centres undefined)
mutagenic call (Test System: UDS HUMAN HEPATOCYTES, Strain/Indicator: THY INCORP, Metabolic Activation: NONE, Method: AUTORADIOGRAPHY): active; positive
mutagenic call (Test System: UDS RAT HEPATOCYTES, Strain/Indicator: THY INCORP, Metabolic Activation: NONE, Method: AUTORADIOGRAPHY): active; positive

Cn1sc(Cl)cc1=O (tested in a mixture with another compound)
mutagenic call [14]: active; positive
mutagenic call (Test System: AMES SALMONELLA TYPHIMURIUM, Strain/Indicator: TA100, Metabolic Activation: RAT, LIVER, S-9, AROCLOR 1254, Method: STANDARD PLATE): active; positive
